# Test results from article PMC11684029, “Discovery of VU6024578/BI02982816: An mGlu1 Positive Allosteric Modulator with Efficacy in Preclinical Antipsychotic and Cognition Models” (Journal of Medicinal Chemistry, 2024).
# Entries after “also recorded” stand apart in the source; their conditions may differ. Where two headings read alike, the source gives them in different places.
# Key:
# [1] = rat IV/PO PK crossover study; type: in vivo
# Source text: (§1) Thus, 19d was a stable chemical entity in vivo. […] Overall, the rat PK and CNS penetration was supportive of in vivo work and progression down the development flow-chart.
# rats = test: rotarod; type: in vivo; settings: rat, doses up to 10 mg/kg
# Experimental: (§2) In order to enable our target validation work, we first profiled PAM 19d in a rat locomotor battery to ensure that pharmacodynamic efficacy was not mistaken for gross effects on locomotion.[20] […] PK was performed in parallel to establish a PK/PD relationship.[24]
# On the first day, the animals were placed on the rotarod apparatus which was rotating at a speed of 20 rpm. If the rats fall of the bar, the animals were placed back on the apparatus for a total of 2 min. On the day of testing, adult male rats were pretreated with VU6024578 (1–10 mg/kg) 65 min before being placed on the rotarod apparatus. Testing consisted of accelerating rotarod from 4 to 40 rpm over 5 min. The time and final speed when the rats fall off of the apparatus was recorded.
# Sprague–Dawley rats = test: spontaneous locomotion; type: in vivo; settings: rat, doses up to 10 mg/kg p.o.
# Experimental: as §2
# Adult male Sprague–Dawley rats were administered VU6024578 (1–10 mg/kg p.o.) or vehicle and were tested in the […]. Seventy minutes later the animals were placed into the activity chambers (Med Associates) for 30 min.
# AT2 = molecular target: T1, AT2 (Homo sapiens, UniProt P50052); test: Eurofins radioligand binding panel; settings: agonist radioligand
# T1 construct: Eurofins (panel run as a service)
# Source text: (§3) Table S1. Eurofins Lead Profiling Screen Data
# (§4) This is a radioligand binding panel of 80 targets including GPCRs, ion channels, transporters and nuclear hormones. Biochemical assay results are presented as the percent inhibition of specific […]
# (§5) Results showing an inhibition or stimulation higher than 50% are considered to represent significant effect and are highlighted […]
# (§6) Target / Protein Species % Inhibition at 10 […]
# BZD (central) = test: Eurofins radioligand binding panel; settings: agonist radioligand
# Source text: as §3, §4, §5, §6
# CGRP = molecular target: T2, CGRP (Homo sapiens, UniProt O60894+Q16602); test: Eurofins radioligand binding panel; settings: agonist radioligand
# T2 construct: Eurofins (panel run as a service)
# Source text: as §3, §4, §5, §6
# Adenosine A3 = molecular target: T3, Adenosine A3 (Homo sapiens, UniProt P0DMS8); test: Eurofins radioligand binding panel; settings: agonist radioligand
# T3 construct: Eurofins
# Source text: as §3, §4, §5, §6
# B2 = molecular target: T4, B2 (Homo sapiens, UniProt P30411); test: Eurofins radioligand binding panel; settings: agonist radioligand
# T4 construct: Eurofins (panel run as a service)
# Source text: as §3, §4, §5, §6
# CCK1 (CCKA) = molecular target: T5, CCK1 (CCKA) (Homo sapiens, UniProt P32238); test: Eurofins radioligand binding panel; settings: agonist radioligand
# T5 construct: Eurofins (panel run as a service)
# Source text: as §3, §4, §5, §6
# Adrenergic beta 2 = molecular target: T6, Adrenergic beta 2 (Homo sapiens, UniProt P07550); test: Eurofins radioligand binding panel; settings: antagonist radioligand
# T6 construct: Eurofins
# Source text: as §3, §4, §5, §6
# AT1 = molecular target: T7, AT1 (Homo sapiens, UniProt P30556); test: Eurofins radioligand binding panel; settings: antagonist radioligand
# T7 construct: Eurofins
# Source text: as §3, §4, §5, §6
# CB1 = molecular target: T8, CB1 (Homo sapiens, UniProt P21554); test: Eurofins radioligand binding panel; settings: agonist radioligand
# T8 construct: Eurofins (panel run as a service)
# Source text: as §3, §4, §5, §6
# BZD (peripheral) = molecular target: T9, BZD (peripheral) (Rattus norvegicus, UniProt P16257); test: Eurofins radioligand binding panel; settings: antagonist radioligand
# T9 construct: Eurofins (panel run as a service)
# Source text: as §3, §4, §5, §6
# Adenosine A2A = molecular target: T10, Adenosine A2A (Homo sapiens, UniProt P29274); test: Eurofins radioligand binding panel; settings: agonist radioligand
# T10 construct: Eurofins
# Source text: as §3, §4, §5, §6
# Adrenergic beta 1 = molecular target: T11, Adrenergic beta 1 (Homo sapiens, UniProt P08588); test: Eurofins radioligand binding panel; settings: agonist radioligand
# T11 construct: Eurofins
# Source text: as §3, §4, §5, §6
# hydrolytic stability = type: physicochemical
# rat IP PBL study = type: in vivo; settings: 3 mg/kg IP, at Tmax
# Source text: as §1
# [2] = glutathione trapping of reactive intermediates; type: in vitro ADME
# Experimental: Across species, 19d had acceptable fraction unbound in both plasma (fu (plasma): 0.03 (human), 0.041 (rat), 0.025 (cyno), 0.039 (dog) and 0.056 (mouse)) and brain (fu (brain): 0.034 (rat) and 0.081 (mouse)).
# In Vitro Glutathione Conjugates of 19d
# Figure S1. 19d was incubated in rat and human liver microsomes for 1 hr (with and without
# NADPH) with 20 µM glutathione.
# conjugates, most likely due to reactive intermediate formation from the 2-furanyl southern […]
# rat mGlu1 = rat mGlu1 (Rattus norvegicus, UniProt P23385); test: progressive fold-shift assay, operational model of allosterism; type: cell-based
# Source text: (§7) To further characterize this novel mGlu1 PAM, we performed progressive fold-shift assays at both human and rat mGlu1 (Figure 4).
# (§8) Figure 4 Operational modeling of the effects of increasing concentrations of VU6024578 (19d) on rat (A) and human (B) mGlu1receptors. Increasing amounts of 19d were applied prior to increasing concentrations of glutamate at either rat or human mGlu1. Data were fit in GraphPad Prism as indicated in the Methods section; for panel A, log α was 0.95 and for panel B it was 1.26. Data represent one experiment performed in duplicate.
# human mGlu1 = molecular target: T12, human mGlu1 (Homo sapiens, UniProt Q13255); test: as above; type: cell-based
# T12 construct: expressed in transfected cells; pcDNA5/TO)
# Source text: as §7, §8
# PCP = test: Eurofins radioligand binding panel; design: species or system rat; settings: antagonist radioligand
# Source text: as §3, §4
# (§9) Results showing an inhibition or stimulation higher than 50% are considered to represent significant effect and are highlighted
# GABA (non-selective) = test: Eurofins radioligand binding panel; design: species or system rat; settings: agonist radioligand
# Source text: as §3, §4, §9
# P2Y = test: Eurofins radioligand binding panel; design: species or system rat; settings: agonist radioligand
# Source text: as §3, §4, §9
# SKCa channel = test: Eurofins radioligand binding panel; design: species or system rat; settings: antagonist radioligand
# Source text: as §3, §4, §9
# KV channel = test: Eurofins radioligand binding panel; design: species or system rat; settings: antagonist radioligand
# Source text: as §3, §4, §9
# [3] = system: Ca2+ channel (L, verapamil site) (phenylalkylamine); test: Eurofins radioligand binding panel; design: species or system rat; settings: antagonist radioligand
# Source text: as §3, §4, §9
# brain homogenate binding = type: in vitro ADME, rat; settings: fraction unbound
# rat mGlu1, sequence (P23385 19-1199): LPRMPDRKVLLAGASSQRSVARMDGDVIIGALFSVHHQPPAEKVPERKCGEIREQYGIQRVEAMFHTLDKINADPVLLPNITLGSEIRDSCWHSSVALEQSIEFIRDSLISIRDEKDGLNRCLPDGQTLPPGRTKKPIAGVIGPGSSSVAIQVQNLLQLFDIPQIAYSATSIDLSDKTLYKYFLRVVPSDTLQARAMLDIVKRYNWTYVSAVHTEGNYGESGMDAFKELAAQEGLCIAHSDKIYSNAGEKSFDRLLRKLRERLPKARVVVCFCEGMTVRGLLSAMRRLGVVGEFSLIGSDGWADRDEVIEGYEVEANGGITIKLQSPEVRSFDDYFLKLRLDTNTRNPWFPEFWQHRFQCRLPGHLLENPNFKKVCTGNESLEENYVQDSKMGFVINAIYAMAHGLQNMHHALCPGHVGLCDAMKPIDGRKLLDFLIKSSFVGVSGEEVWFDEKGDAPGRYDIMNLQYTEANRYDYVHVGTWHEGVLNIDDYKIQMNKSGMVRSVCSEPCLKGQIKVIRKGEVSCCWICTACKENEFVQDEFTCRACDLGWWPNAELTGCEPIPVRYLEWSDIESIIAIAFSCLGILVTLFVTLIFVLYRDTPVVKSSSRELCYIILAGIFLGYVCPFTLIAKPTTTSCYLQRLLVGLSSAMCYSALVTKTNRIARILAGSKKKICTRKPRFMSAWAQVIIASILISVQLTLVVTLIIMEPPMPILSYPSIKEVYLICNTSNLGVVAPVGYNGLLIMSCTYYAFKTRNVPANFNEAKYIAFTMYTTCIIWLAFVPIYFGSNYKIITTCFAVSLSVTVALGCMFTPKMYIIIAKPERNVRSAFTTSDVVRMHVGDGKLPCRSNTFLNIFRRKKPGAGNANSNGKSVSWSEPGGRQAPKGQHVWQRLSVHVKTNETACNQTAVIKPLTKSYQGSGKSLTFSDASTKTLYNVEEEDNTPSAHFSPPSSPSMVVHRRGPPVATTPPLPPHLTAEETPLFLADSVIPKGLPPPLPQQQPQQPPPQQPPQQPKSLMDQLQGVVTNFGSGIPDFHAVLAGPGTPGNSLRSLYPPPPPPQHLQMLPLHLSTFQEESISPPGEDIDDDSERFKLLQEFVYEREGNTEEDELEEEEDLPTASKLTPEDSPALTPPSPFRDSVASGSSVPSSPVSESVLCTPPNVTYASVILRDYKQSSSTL
# T12 sequence (Q13255 19-1194): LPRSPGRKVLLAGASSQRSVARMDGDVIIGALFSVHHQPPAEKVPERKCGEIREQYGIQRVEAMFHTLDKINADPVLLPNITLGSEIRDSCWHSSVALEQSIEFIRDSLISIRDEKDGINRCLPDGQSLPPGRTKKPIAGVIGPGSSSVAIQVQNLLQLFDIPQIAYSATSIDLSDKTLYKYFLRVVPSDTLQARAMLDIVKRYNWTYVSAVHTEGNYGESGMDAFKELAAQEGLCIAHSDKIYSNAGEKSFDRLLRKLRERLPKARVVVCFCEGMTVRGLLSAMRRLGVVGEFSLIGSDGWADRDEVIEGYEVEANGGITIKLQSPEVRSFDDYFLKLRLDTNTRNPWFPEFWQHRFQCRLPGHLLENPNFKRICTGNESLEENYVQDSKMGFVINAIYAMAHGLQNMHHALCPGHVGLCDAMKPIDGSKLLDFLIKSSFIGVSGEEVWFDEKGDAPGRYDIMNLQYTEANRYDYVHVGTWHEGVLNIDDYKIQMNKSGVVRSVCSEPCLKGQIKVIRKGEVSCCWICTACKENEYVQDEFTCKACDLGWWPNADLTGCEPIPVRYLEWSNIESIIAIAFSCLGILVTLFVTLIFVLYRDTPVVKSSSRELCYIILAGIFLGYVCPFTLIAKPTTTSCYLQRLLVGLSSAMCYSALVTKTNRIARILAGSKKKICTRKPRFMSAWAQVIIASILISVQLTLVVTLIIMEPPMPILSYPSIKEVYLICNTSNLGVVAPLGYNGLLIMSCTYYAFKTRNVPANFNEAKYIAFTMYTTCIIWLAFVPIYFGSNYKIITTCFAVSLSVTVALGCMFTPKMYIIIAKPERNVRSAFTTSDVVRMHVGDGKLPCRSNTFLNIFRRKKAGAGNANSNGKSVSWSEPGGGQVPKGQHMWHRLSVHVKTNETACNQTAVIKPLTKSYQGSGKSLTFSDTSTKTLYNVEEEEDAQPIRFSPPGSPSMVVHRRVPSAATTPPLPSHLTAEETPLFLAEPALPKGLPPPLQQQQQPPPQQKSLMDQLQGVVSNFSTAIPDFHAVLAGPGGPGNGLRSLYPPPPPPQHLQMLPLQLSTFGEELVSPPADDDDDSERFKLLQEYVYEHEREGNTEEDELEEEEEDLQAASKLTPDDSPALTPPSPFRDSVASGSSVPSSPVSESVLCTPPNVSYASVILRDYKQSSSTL
# T5 sequence (P32238 whole entry): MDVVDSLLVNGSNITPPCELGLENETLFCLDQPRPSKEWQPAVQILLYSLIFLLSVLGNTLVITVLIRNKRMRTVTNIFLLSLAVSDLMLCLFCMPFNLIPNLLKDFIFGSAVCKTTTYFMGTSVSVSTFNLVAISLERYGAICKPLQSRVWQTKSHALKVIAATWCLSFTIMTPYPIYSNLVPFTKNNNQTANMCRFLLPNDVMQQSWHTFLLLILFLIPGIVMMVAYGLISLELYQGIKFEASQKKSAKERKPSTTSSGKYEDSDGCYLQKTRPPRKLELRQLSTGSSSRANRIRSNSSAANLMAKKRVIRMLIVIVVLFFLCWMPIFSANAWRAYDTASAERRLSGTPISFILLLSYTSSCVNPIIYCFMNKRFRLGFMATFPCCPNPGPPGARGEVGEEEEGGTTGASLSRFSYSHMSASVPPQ
# T3 sequence (P0DMS8 whole entry): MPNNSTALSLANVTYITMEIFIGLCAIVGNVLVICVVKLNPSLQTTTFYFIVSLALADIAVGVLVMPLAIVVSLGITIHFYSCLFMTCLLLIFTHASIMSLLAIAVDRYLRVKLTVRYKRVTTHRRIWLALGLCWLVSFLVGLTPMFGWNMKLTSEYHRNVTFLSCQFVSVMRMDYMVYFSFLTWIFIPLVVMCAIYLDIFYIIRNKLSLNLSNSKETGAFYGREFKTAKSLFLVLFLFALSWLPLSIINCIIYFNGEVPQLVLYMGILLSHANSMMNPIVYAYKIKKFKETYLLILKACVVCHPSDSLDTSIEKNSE
# T11 sequence (P08588 whole entry): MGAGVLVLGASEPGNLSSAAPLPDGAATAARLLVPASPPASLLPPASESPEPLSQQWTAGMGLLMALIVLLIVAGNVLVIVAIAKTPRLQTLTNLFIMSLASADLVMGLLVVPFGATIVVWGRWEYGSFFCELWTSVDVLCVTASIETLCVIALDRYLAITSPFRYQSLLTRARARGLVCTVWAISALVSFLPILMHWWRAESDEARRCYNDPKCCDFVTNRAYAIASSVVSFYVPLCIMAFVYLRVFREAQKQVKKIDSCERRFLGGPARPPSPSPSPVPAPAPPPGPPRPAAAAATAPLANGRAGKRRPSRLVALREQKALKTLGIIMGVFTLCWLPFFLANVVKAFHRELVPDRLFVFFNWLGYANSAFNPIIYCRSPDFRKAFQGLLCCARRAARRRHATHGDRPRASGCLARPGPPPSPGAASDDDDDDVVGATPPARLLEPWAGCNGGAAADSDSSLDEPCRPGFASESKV
# T10 sequence (P29274 whole entry): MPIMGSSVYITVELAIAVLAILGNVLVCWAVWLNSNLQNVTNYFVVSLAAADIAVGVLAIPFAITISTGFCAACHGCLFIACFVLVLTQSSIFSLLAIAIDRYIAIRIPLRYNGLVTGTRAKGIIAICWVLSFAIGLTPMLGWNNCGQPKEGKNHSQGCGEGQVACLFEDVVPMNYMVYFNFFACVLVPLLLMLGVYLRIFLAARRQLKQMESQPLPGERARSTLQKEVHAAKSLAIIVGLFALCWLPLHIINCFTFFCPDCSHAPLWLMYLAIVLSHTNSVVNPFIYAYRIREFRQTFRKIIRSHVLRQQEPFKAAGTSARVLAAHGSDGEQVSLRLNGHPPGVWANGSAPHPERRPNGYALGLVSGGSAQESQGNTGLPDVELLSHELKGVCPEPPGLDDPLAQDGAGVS
# T7 sequence (P30556 whole entry): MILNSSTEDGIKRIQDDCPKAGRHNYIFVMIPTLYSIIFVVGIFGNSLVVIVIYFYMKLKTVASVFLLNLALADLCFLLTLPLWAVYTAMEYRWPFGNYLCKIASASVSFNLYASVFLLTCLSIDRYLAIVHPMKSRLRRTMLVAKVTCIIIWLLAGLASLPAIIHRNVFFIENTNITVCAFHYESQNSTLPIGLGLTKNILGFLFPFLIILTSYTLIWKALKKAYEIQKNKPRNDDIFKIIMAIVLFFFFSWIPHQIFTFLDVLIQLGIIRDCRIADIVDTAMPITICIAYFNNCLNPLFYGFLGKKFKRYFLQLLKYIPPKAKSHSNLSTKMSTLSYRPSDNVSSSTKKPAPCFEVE
# T8 sequence (P21554 whole entry): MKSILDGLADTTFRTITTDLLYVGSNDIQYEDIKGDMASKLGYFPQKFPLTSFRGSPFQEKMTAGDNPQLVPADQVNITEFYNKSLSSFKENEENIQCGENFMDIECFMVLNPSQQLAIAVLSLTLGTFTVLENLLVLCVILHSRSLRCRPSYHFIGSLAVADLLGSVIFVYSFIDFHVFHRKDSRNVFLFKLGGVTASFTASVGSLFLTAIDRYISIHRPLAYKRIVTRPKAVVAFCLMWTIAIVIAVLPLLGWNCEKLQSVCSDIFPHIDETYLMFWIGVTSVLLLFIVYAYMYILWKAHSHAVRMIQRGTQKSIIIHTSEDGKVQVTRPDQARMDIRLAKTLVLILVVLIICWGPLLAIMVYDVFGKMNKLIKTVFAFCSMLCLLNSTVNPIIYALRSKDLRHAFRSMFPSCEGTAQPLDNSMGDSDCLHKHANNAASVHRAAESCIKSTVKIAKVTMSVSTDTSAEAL
compound,measurement,setting,value
"Cn1nc(-c2ccnn2C)cc1CNC(=O)c1cc(-c2ccco2)ccc1Cl [Compound 19d, 2-Chloro-N-((1,2′-dimethyl-1H,2’H-[3,3′-bipyrazol]-5-yl)methyl)-5-(furan-2-yl)benzamide]",Vss,[1]; 1 mg/kg IV,1.78 L/kg
same,plasma clearance (CLp),[1]; 1 mg/kg IV,0.498 L/h/kg
same,t1/2,[1]; 1 mg/kg IV,3.9 h
same,oral bioavailability (%F),[1]; PO 10% tween 80,100%
same,Cmax,[1]; PO arm,4.15 µg/mL
same,Tmax,[1]; PO arm,2 h
same,AUC,"[1]; plasma, PO arm",24.6 µg·h/mL
same,rotarod,rats,lack of effect
same,spontaneous locomotion,Sprague–Dawley rats,lack of effect
same,inhibition at 10 µM,AT2,2%
same,% Inhibition at 10 µM,BZD (central),5%
same,inhibition at 10 µM,CGRP,1%
same,inhibition at 10 µM,Adenosine A3,23%
same,inhibition at 10 µM,B2,7%
same,inhibition at 10 µM,CCK1 (CCKA),7%
same,inhibition at 10 µM,Adrenergic beta 2,-1%
same,inhibition at 10 µM,AT1,-1%
same,inhibition at 10 µM,CB1,0%
same,inhibition at 10 µM,BZD (peripheral),96%
same,inhibition at 10 µM,Adenosine A2A,-1%
same,inhibition at 10 µM,Adrenergic beta 1,1%
same,hydrolytic stability,"hydrolytic stability; acidic, pH 2.2",hydrolytically stable
same,hydrolytic stability,"hydrolytic stability; neutral, pH 7.4",hydrolytically stable
same,Br[unbound],rat IP PBL study,68 nM
same,glutathione conjugates,[2]; human liver microsomes with glutathione,multiple glutathione; also recorded: a number of minor glutathione conjugates with four involving the furanyl ring
same,glutathione conjugates,[2]; rat liver microsomes with glutathione,multiple glutathione; also recorded: a number of minor glutathione conjugates with four involving the furanyl ring
same,EC50,rat mGlu1; in Figure 4A,0.044 µM
same,log α,"rat mGlu1; panel A (rat), one experiment in duplicate",0.95
same,Kb,"rat mGlu1; rat mGlu1, operational model of allosterism, read-out: estimated KB",1.04 µM
same,Kb,"rat mGlu1; rat mGlu1, printed in Figure 4A, read-out: KB",1.04 µM
same,Kb,"human mGlu1; human mGlu1, operational model of allosterism, read-out: estimated KB",0.219 µM
same,log α,"human mGlu1; panel B (human), one experiment in duplicate",1.26
same,EC50,human mGlu1; printed in Figure 4B,0.046 µM
same,% Inhibition at 10 µM,PCP,2%
same,% Inhibition at 10 µM,GABA (non-selective),-3%
same,% Inhibition at 10 µM,P2Y,23%
same,% Inhibition at 10 µM,SKCa channel,2%
same,% Inhibition at 10 µM,KV channel,8%
same,% Inhibition at 10 µM,[3],-16%
same,rat fubrain,brain homogenate binding,0.034
